Consider 9 molecules from PMC5786306, “An AKAP-Lbc-RhoA interaction inhibitor promotes the translocation of aquaporin-2 to the plasma membrane of renal collecting duct principal cells” (PLoS ONE, 2018).

Entries after “also recorded” stand apart in the source; their conditions may differ. Read-outs that look alike come from different tables or passages of the source. Some results are limits rather than exact numbers.

The nature of series [1]: Nephelometric solubility. The series is classed as physicochemical. To be noted: maximal solubility in DMEM + 10 % FCS. The method, then: Solubility of Scaff10 derivatives was assessed nephelometrically. Scaff10 derivatives are moderately to poorly soluble in aqueous solutions due to their large number of aromatic rings having lipophilic character. Details about NMR, LC/MS and HPLC characterization steps are given in the Supplemental Information.
Suppl. Tab. 3: Overview of all 55 Scaff10 derivatives.Structures labeld with 1 were commercially obtained. MW = molecular weight. logP = calculated partition coefficient (using […]
Solubility was assessed nephelometrically in DMEM + 10 % FCS + Scaff10 derivative with either 0.3 or 2 % DMSO
final concentration; values in µM indicate maximal solubility of the compound under the respective condition. Yield in % indicates total yield of the last step of chemical synthesis
for each of Scaff10 derivatives. n.d. = not determined. n.i. = not indicated.
Scaff10 MW Number of exp. 2 % DMSO 0.3 % DMSO Scaff10 Yield
Structure log P Disruption of the PPI IC50 [µM]
derivative [g/mol] in dupl. [µM] [µM] class [%]

In series [2] the target is T1, 647-RhoA (Homo sapiens, UniProt P61586).
T1 construct: made in house
T1 sequence (P61586 whole entry): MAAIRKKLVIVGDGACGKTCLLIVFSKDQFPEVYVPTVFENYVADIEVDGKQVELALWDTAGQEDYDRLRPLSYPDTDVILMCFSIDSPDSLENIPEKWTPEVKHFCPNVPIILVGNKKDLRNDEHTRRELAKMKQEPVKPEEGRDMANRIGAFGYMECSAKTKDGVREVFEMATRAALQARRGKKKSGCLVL
The experiment in a line: Microscale thermophoresis (MST) with 647-RhoA. To be noted: for Kd: mean ± SEM. The class given is binding. The method, then: (§1) The final concentration of GFP-AKAP-Lbc/DHPH was set to 150 nM, 95% LED and 80% MST laser power. […] The samples were incubated in the dark for 1 h incubation at room temperature, and measured with 30 sec laser-on and 5 sec laser-off time at a Monolith NT.115 device (NanoTemper). Measured fluorescence (F) was normalised (Fhot/Fcold = Fsteady state/Finitial state, Fig 3). Values of thermophoresis + T-jump were related to average of each measurement row (16 capillaries). Final values are given as ‰.
(§2) Fig 4 The Scaff10 derivative Scaff10-8 binds to RhoA but not to the DHPH domain of AKAP-Lbc. (A-D) Microscale thermophoresis (MST) takes advantage of the phenomenon of directed movement of particles in a temperature gradient. Binding events lead to changes in the hydration shell of biomolecules and a relative change of movement of the molecular complex along a temperature gradient. Using such changes, binding affinities can be determined. MST assays were carried out with (A) the recombinant DHPH domain of AKAP-Lbc fused with GFP and RhoA as a ligand and (B) fluorescent 647-RhoA and the His-tagged AKAP-Lbc/DHPH domain as a ligand. (C) MST assays for the analysis of the binding of Scaff10-8 to 647-RhoA. Upper panels: The concentration of fluorescent 647-RhoA remained constant and Scaff10-8 (left) and Scaff10-7 as a negative control (right) were titrated in increasing concentrations. Lower panels: Values of fluorescence corresponding to upper panels. (D) MST assay showing no binding of Scaff10-8 or Scaff10-7 to GFP-DHPH. Upper panels: The concentration of fluorescent GFP-AKAP-Lbc/DHPH remained constant and Scaff10-8 (left) and Scaff10-7 (right) were titrated in increasing concentrations. Lower panels: Values of fluorescence corresponding to upper panels. […] F norm = normalized fluorescence (fluorescence steady state/fluorescence initial state) indicated in ‰. n = 3–5. Mean ± SEM. […] The ligand protein named in each panel heading is used as the substance label, and it is uncertain whether these count as substances.

Series [3] deals with T2, interaction of AKAP-Lbc/DHPH and RhoA (Homo sapiens, UniProt P61586).
T2 construct: His6-AKAP-Lbc/DHPH (aa 1972–2342 of human AKAP-Lbc; NP_006729.4); made in house
T2 sequence (P61586 whole entry, the tested form may be a part): as the sequence (P61586 whole entry) above
The experiment in a line: Homogeneous time-resolved fluorescence (HTRF) assay. The settings on record: HTRF; for inhibitory effect on the AKAP-Lbc/DHPH-RhoA interaction: result in words. The series is classed as binding. From the text: Fig 2 The small molecule Scaff10-8 inhibits the interaction of the DH domain of AKAP-Lbc and RhoA. (A). Principle of homogenous time-resolved fluorescence (HTRF) assay. Recombinant His-AKAP-Lbc/DHPH and GST-RhoA were generated. The tags are recognized by specific antibodies coupled to fluorescent dyes. When the two proteins interact, donor and acceptor dyes of the antibodies are in close proximity, energy transfer occurs upon excitation at 320 nm and a FRET signal is detected (665 nm). If a compound disrupts the interaction of the DHPH domain and RhoA, the proximity of the fluorescent moieties remains insufficient for a FRET signal to occur. […] As expected, excess untagged Rho decreases the binding between GST-RhoA and His-AKAP-Lbc/DHPH in a dose-dependent manner (lower left panel). […] (C) The influence of Scaff10-8 on the interaction of RhoA with the recombinant DH domain of AKAP-Lbc in the absence of the PH domain was determined by Alpha screen. […] The IC50 value is indicated.
The assay was essentially carried out as described. Scaff10 derivatives were added to His6-AKAP-Lbc/DHPH protein (250 nM final concentration) in HTRF buffer (PBS; 4 mM MgCl2; 0.05% Tween 20) in 384 well plates (Proxiplate-384 Plus, white, #6008289; Perkin Elmer LAS, Rodgau, Germany). Concentrations of Scaff10 derivatives ranged between 1.56–200 μM (2% DMSO final concentration); HTRF buffer with 2% DMSO served as a control. GST-RhoA (30 nM final concentration) in HTRF buffer and anti-GST antibody coupled to terbium (donor) and anti-His6-tag antibody coupled to XL665 (acceptor) were added to all wells (final antibody concentration: 2 μg/ml). After 1 h incubation at room temperature in the dark, FRET signals were recorded at 620 and 665 nm using a Genios Pro plate reader (Tecan Austria GmbH, Grödig, AT) and the ratios of […] to 620 nm were calculated. Wells containing no compound were set to 100% interaction of AKAP-Lbc/DHPH with RhoA, wells containing GST-RhoA only (without His6-AKAP-Lbc/DHPH) were set to 0% interaction. To exclude any interference of the tags and/or antibodies with Scaff10 derivatives, a His6-GST fusion protein replaced the two tagged proteins in a control assay. Wells containing His6-GST fusion protein were set to 100% interaction of His6-GST, wells containing no fusion protein were set to 0% interaction.

The target in series [4] is T3, interaction of the DH domain of AKAP-Lbc and RhoA (Homo sapiens, UniProt P61586).
T3 construct: The proteins used were N-terminally His6-tagged AKAP-Lbc-DH domain
T3 sequence (P61586 whole entry, the tested form may be a part): as the sequence (P61586 whole entry) above
Nature of the series: Alpha screen assay. The series is classed as binding. The settings on record: result in words. The method, then: Assays were performed according to the manufacturer’s protocol (PerkinElmer) with minor modifications. All reagents were diluted in buffer containing 25 mM Hepes, pH 7.4, 100 mM NaCl, 0.1% bovine serum albumin, 0.05% CHAPS and 50 μM GDP and allowed to equilibrate to room temperature before addition to plates. […] The proteins used were N-terminally His6-tagged AKAP-Lbc-DH domain and C-terminally biotinylated RhoA. […] 8 μL of assay buffer containing donor and acceptor beads at 1:400 dilution was then added, the plate was incubated in the dark for 60 min and then read on a PheraStar FS plate reader (BMG Labtech, Germany) using an AlphaScreen^TM 680 excitation/570 emission filter set.
11.6 μL of a solution containing 100 nM RhoA and 200 nM AKAP13 in assay buffer was added and incubated with the compounds for 30 min at RT in foil-sealed plates. 8 μL of assay buffer containing donor and acceptor beads at 1:400 dilution was added. The plate was incubated in the dark for 60 min and then read on a PheraStar FS plate reader.

Series [5] deals with AQP2 localization in MCD4 cells. The experiment in a line: Immunofluorescence microscopy of AQP2 in MCD4 cells. The class given is cell-based, mouse. To be noted: 30 μM.
The conditions of series [6]: comparison value, no reference given; cited from earlier work.
Series [7] has as its target T4, GFP-AKAP-Lbc/DHPH (Homo sapiens, UniProt Q12802).
T4 construct: His6-AKAP-Lbc/DHPH (aa 1972–2342 of human AKAP-Lbc; NP_006729.4); made in house; host or cells: HEK293-EBNA cells (transient transfection, pTT5)
T4 sequence (Q12802 1972-2342 isoform Q12802-2): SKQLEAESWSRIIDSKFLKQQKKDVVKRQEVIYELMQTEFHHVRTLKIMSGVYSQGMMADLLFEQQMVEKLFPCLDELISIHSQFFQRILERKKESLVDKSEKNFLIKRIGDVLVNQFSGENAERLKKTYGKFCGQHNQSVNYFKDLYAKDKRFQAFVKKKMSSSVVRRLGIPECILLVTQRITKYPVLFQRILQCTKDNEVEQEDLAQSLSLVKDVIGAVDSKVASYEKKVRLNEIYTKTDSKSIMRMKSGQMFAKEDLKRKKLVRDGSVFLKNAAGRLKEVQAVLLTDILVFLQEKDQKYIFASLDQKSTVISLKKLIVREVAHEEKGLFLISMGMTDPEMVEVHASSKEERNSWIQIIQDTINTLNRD
Nature of the series: Microscale thermophoresis (MST) with GFP-AKAP-Lbc/DHPH. The class given is binding. The settings on record: read-out: KD for binding to GFP-AKAP-Lbc/DHPH. The method, then: as §1, §2

Setting [8] is: DMEM + 10 % FCS, plasma or biological fluid, kinetic from dmso stock, 0.3 % DMSO final, read-out: Solubility 0.3 % DMSO.
Setting [9] is: DMEM + 10 % FCS, plasma or biological fluid, kinetic from dmso stock, 2 % DMSO final, read-out: Solubility 2 % DMSO.
Setting [10] is: IC50 ± SEM, Table 1, '-' = no IC50, inactive (n.d. is used separately in S3 Table).
Setting [11] is: Table 1, '-' = no IC50, inactive (n.d. is used separately in S3 Table), read-out: IC50 ± SEM.

Turning to `Cc1c(CCC(=O)O)c(=O)oc2cc3occ(-c4ccc(Oc5ccccc5)cc4)c3cc12` [Scaff10-38], the solubility was more than 150 µM in series [1] (setting [8]) and 100 µM in series [1] (setting [9]). This molecule gave a Kd in series [2] (KD for binding to 647-RhoA, n = 3–5) of 19.5 ± 4.1 µM. In addition, the concentration for half-maximal inhibition (IC50) in series [3] (setting [10]) is 36.7 ± 3.3 µM.

On to `COC(=O)CCc1c(C)c2cc3c(-c4ccc(OC)cc4)coc3cc2oc1=O` [Scaff10-48], for which the solubility in series [1] (0.3 % DMSO final, read-out: Solubility 0.3 % DMSO) was determined as 75 µM; in series [1] (2 % DMSO final, read-out: Solubility 2 % DMSO), 30 µM. For the same molecule, the “binding to 647-RhoA” value in series [2] (result in words) is “did not bind”. Besides, the “inhibitory effect on the AKAP-Lbc/DHPH-RhoA interaction” value in series [3] is on record as “complete loss of the inhibitory effect”. Moreover, the IC50 in series [3] (setting [11]) is more than 200 µM.

For `CCOC(=O)CCc1c(C)c2ccc(OCc3ccc(OC)cc3)cc2oc1=O` [Scaff10-59], the “inhibitory effect in Alpha screen” value in series [4] is on record as “without inhibitory effects”. Also, in series [5], the “localization of AQP2 in MCD4 cells” value is on record as “did not affect the location of AQP2”. Also, the solubility was found to be 40 µM in series [1] (setting [8]) and 30 µM in series [1] (setting [9]). For the same molecule, the “inhibitory effect on the AKAP-Lbc/DHPH-RhoA interaction” value in series [3] was “did not; also recorded: without inhibitory effects”. Also, the IC50 in series [3] (setting [11]) is more than 200 µM.

`COc1cccc(-c2ccc(C(=O)COc3ccc4c(C)c(CCC(=O)O)c(=O)oc4c3)cc2)c1` [Scaff10-63]: the solubility in series [1] (setting [8]) was 75 µM; in series [1] (setting [9]), 30 µM. Besides, the concentration for half-maximal inhibition (IC50) in series [3] (IC50 for inhibition of the AKAP-Lbc/DHPH-RhoA interaction, text and figures, ± SEM, n = 3–15 in duplicate) is 24 ± 8 µM; in series [3] (setting [10]), 24.4 ± 8.4 µM.

As for `COc1cccc(-c2ccc(-c3coc4cc5oc(=O)c(CCC(=O)O)c(C)c5cc34)cc2)c1` [Scaff10-64], the solubility was more than 150 µM in series [1] (setting [8]) and 70 µM in series [1] (setting [9]). This molecule also returned an IC50 in series [3] (setting [10]) of 28.9 ± 9.3 µM.

Regarding `CC(=O)NO` [acetohydroxamic acid], the pKa in series [6] is 8.7.

On to `O=C(O)/C=C/c1ccccc1` [cinnamic acid], for which the pKa in series [6] is 4.44.

Take “untagged RhoA: recombinant untagged RhoA protein used as competitor or ligand”: in series [7], the Kd came to 42 ± 5 µM.

B1: His-AKAP-Lbc/DHPH: recombinant His-tagged DHPH domain of AKAP-Lbc (protein)
chain: T4 sequence (Q12802 1972-2342 isoform Q12802-2)
modifications: left off: His6, end not stated, kept
As to B1, in series [2] (n = 3–5, read-out: KD for binding to 647-RhoA), the Kd amounted to 14 ± 4 µM.
